Data as given in publication PMC7782793, “Hydroxamic acid-modified peptide microarrays for profiling isozyme-selective interactions and inhibition of histone deacetylases” (Nature Communications, 2021).
Where “and” joins values, the source holds several entries; their conditions need not be identical. Equal entries are not always repeated. Marks after values point to notes of the source that are not given here. Non-standard residues stand in square brackets, D forms with d. Residues, ends and D or L forms follow the SMILES beside them. *: point of attachment. Asu = N[C@@H](CCCCCC(=O)O)C(=O)O; NHOH = ON*

Legend:
HDAC3/NCoR2 [1] = target: T1, HDAC3/NCoR2 (Homo sapiens, UniProt O15379); test: HDAC inhibition assay (fluorogenic, Ac-Leu-Gly-Lys(Ac)-AMC); format: biochemical; conditions: for HDAC3 dose-response data (relative enzyme activity), Fig. 6 + S. Fig. 10: duplicate columns
T1 construct: HDAC3/NCoR2 (full length, C-terminal His tag, NCoR2 N-terminal GST tag); purchased BPS Bioscience 50003

HDAC6 = target: T2, HDAC6 (Homo sapiens, UniProt Q9UBN7); test: as above; format: biochemical; conditions: for residual enzymatic activity relative to control wells: HDAC6, replicates
T2 construct: HDAC6 (full length, BPS Bioscience, cat. #: 50056); purchased BPS Bioscience 50056
T2 sequence (Q9UBN7 1-1215): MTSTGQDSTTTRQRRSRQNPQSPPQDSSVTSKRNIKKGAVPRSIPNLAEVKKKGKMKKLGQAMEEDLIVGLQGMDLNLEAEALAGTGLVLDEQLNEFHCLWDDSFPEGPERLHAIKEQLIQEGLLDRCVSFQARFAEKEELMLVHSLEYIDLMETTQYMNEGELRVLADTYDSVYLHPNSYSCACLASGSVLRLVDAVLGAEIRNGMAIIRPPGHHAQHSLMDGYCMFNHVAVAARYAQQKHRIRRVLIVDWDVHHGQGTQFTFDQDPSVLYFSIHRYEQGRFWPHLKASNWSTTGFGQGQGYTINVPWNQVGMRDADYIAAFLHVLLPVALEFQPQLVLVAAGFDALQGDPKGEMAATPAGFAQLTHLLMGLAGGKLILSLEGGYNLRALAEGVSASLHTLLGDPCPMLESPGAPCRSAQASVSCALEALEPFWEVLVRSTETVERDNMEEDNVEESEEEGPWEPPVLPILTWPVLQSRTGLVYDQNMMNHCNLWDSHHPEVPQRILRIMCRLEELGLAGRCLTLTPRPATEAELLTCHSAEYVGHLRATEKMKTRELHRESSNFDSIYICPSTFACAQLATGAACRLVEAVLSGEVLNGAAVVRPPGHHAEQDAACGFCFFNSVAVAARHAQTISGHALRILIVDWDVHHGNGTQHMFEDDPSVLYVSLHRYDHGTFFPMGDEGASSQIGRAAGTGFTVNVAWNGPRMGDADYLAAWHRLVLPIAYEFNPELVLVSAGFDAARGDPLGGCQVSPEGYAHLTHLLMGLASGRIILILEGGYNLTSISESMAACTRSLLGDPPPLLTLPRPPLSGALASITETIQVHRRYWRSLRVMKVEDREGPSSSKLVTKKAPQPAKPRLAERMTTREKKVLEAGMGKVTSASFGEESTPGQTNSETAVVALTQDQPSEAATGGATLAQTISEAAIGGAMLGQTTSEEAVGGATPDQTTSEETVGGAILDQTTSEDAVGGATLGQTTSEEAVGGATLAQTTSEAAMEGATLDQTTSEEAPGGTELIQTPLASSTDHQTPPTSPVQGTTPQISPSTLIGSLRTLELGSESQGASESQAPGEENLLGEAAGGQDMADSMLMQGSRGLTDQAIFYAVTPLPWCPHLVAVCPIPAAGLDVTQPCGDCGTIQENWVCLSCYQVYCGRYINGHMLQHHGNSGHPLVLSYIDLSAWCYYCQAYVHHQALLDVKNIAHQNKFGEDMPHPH

HDAC1 [2] = target: T3, HDAC1 (Homo sapiens, UniProt Q13547); test: as above; format: biochemical; conditions: for HDAC1 dose-response data (relative enzyme activity), Fig. 6 + S. Fig. 10: duplicate columns
T3 construct: HDAC1 (full length, C-terminal His tag, C-terminal FLAG tag, BPS Bioscience, cat. #: 50051); FLAG (C); purchased BPS Bioscience 50051

HDAC4 = target: T4, HDAC4 (Homo sapiens, UniProt P56524); test: HDAC inhibition assay (fluorogenic, Ac-Leu-Gly-Lys(Tfa)-AMC); format: biochemical; conditions: 2 internal replicates
T4 construct: purchased BPS Bioscience 50004

HDAC2 = target: T5, HDAC2 (Homo sapiens, UniProt Q92769); test: HDAC inhibition assay (fluorogenic, Ac-Leu-Gly-Lys(Ac)-AMC); format: biochemical; conditions: for HDAC2 dose-response data (relative enzyme activity), Fig. 6 + S. Fig. 10: duplicate columns
T5 construct: HDAC2 (full length, C-terminal His tag, BPS Bioscience, cat. #: 50002); purchased BPS Bioscience 50002

HDAC1 [3] = target: T3, HDAC1; test: Recombinant HDAC µSPOT microarray binding assay
HDAC3/NCoR2 [4] = target: T1, HDAC3/NCoR2; test: Recombinant HDAC µSPOT microarray binding assay
Experimental: Experiments were performed twice, data were obtained with Array Analyze software (Active Motif), and data analysis and representation were performed with the GraphPad Prism 7 software. Outliers were curated manually and data were fitted to nonlinear regression [log(agonist) vs. response—variable slope (four parameters)]. […] Non-sigmoidal curves were denoted as not determined (N.D.) The pEC50 values were determined as the concentration of HDAC enzyme required for half-maximal binding signal.

HDAC8 = target: T6, HDAC8 (Homo sapiens, UniProt Q9BY41); test: HDAC inhibition assay (fluorogenic, Ac-Leu-Gly-Lys(Tfa)-AMC); format: biochemical; conditions: for HDAC8 dose-response data (relative enzyme activity, replicate values), Fig. 6 + S. Fig. 10: two replicate columns per inhibitor; for HDAC8 dose-response data (relative enzyme activity), Fig. 6 + S. Fig. 10: duplicate columns
T6 construct: HDAC8 (full length, C-terminal His tag, BPS Bioscience, cat. #: 50008); purchased BPS Bioscience 50008
T6 sequence (Q9BY41 1-377): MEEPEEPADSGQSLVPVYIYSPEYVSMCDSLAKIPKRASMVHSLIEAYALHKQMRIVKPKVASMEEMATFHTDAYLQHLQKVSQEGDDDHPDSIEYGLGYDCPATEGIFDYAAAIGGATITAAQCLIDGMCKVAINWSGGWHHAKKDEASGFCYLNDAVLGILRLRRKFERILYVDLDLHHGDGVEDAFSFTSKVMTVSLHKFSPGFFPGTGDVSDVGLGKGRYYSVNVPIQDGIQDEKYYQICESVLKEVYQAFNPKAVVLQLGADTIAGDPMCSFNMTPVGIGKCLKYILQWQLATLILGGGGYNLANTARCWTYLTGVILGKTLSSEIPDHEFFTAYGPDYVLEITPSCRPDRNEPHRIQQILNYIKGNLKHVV

[5] = log[inhibitor(M)] -10,5850266520292*, whole line marked with asterisks

T5 sequence (Q92769 whole entry): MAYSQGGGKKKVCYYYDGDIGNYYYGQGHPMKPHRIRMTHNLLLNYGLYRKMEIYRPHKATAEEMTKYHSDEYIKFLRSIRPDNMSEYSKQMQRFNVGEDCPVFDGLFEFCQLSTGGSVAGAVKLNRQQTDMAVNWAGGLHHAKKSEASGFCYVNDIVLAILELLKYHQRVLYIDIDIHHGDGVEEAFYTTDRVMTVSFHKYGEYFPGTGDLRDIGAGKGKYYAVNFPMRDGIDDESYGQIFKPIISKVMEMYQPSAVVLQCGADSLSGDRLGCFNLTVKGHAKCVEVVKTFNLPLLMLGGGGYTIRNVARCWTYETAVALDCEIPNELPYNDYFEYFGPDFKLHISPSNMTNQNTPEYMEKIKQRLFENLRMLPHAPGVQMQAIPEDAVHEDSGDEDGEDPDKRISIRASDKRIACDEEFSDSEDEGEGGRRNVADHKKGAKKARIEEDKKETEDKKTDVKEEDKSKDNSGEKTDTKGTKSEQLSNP
T4 sequence (P56524 627-1084): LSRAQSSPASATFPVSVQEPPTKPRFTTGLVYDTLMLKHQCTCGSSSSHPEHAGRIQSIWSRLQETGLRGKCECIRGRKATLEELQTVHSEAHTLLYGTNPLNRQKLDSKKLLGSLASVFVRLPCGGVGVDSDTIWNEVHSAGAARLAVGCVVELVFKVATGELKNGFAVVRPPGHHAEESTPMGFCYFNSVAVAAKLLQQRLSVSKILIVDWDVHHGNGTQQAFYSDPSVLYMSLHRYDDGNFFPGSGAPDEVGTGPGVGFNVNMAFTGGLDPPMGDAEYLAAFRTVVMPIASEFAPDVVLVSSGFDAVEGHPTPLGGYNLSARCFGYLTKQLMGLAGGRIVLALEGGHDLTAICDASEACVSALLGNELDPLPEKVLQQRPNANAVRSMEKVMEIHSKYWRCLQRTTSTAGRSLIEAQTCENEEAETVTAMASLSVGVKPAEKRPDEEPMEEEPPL
T3 sequence (Q13547 whole entry): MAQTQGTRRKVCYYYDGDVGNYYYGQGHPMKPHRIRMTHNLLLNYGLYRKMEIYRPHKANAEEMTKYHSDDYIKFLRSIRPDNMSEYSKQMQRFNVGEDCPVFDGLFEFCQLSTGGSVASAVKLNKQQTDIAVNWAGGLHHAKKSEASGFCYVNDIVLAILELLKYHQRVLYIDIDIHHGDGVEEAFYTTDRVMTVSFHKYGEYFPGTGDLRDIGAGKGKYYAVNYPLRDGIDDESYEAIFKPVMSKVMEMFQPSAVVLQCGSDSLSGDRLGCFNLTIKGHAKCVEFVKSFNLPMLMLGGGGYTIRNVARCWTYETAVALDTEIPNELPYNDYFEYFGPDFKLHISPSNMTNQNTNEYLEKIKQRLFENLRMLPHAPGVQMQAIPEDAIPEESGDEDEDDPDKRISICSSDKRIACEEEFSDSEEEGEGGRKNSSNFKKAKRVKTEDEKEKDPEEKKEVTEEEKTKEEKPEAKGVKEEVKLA
T1 sequence (O15379 whole entry): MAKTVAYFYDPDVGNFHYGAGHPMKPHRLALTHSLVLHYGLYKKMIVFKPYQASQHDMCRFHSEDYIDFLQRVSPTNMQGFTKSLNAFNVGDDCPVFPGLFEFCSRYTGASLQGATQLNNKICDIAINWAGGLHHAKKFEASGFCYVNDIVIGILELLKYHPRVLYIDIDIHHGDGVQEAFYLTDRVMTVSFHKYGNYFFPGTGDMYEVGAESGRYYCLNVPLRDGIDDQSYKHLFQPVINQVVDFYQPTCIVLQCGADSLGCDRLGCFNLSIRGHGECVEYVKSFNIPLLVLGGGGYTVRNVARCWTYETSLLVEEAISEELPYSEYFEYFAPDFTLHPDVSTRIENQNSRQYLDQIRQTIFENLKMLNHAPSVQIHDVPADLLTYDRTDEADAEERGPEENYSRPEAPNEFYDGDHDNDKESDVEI
T1 sequence (Q9Y618 389-480 partner limits assumed): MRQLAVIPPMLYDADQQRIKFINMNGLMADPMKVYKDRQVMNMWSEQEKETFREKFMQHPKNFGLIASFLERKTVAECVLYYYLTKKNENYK

## CC(=O)N[C@@H](C)C(=O)N[C@H](C(=O)NCC(=O)NCC(=O)N[C@H](C(=O)N[C@@H](CCCCCC(=O)NO)C(=O)N[C@@H](CCCCN)C(=O)N1CCC[C@H]1C(=O)N[C@@H](Cc1c[nH]cn1)C(=O)N[C@@H](CCCNC(=N)N)C(=O)N[C@@H](Cc1ccc(O)cc1)C(=O)N[C@@H](CCCNC(=N)N)C(=O)N1CCC[C@H]1C(=O)NCC(=O)N[C@H](C(=O)N[C@H](C(=O)N[C@@H](Cc1c[nH]c2ccccc12)C(N)=O)C(C)C)[C@@H](C)O)C(C)C)[C@@H](C)O [15a] (Ac-ATGGV[Asu](NHOH)KPHRYRPGTVW-NH2)
HDAC3/NCoR2 [1]
  Ki: 21.7 ± 0.2 nM
HDAC3/NCoR2 [1]; log[inhibitor(M)] -4.30103
  HDAC3 dose-response data (relative enzyme activity), Fig. 6 + S. Fig. 10: 0.4402 and 0.4708
HDAC3/NCoR2 [1]; log[inhibitor(M)] -5
  HDAC3 dose-response data (relative enzyme activity), Fig. 6 + S. Fig. 10: 1.6435 and 1.312
HDAC3/NCoR2 [1]; log[inhibitor(M)] -5.69897
  HDAC3 dose-response data (relative enzyme activity), Fig. 6 + S. Fig. 10: 7.236 and 5.348
HDAC3/NCoR2 [1]; log[inhibitor(M)] -6.39794
  HDAC3 dose-response data (relative enzyme activity), Fig. 6 + S. Fig. 10: 28.5726 and 19.4648
HDAC3/NCoR2 [1]; log[inhibitor(M)] -7.09691
  HDAC3 dose-response data (relative enzyme activity), Fig. 6 + S. Fig. 10: 64.2255 and 50.9194
HDAC3/NCoR2 [1]; log[inhibitor(M)] -7.79588
  HDAC3 dose-response data (relative enzyme activity), Fig. 6 + S. Fig. 10: 97.9959 and 83.1339
HDAC3/NCoR2 [1]; log[inhibitor(M)] -8.49485
  HDAC3 dose-response data (relative enzyme activity), Fig. 6 + S. Fig. 10: 112.173 and 97.0745
HDAC3/NCoR2 [1]; log[inhibitor(M)] -9.19382
  HDAC3 dose-response data (relative enzyme activity), Fig. 6 + S. Fig. 10: 112.635 and 104.337
HDAC3/NCoR2 [1]; log[inhibitor(M)] -9.89279
  HDAC3 dose-response data (relative enzyme activity), Fig. 6 + S. Fig. 10: 114.089 and 99.1792
HDAC6; log[inhibitor(M)] -4.30103
  residual enzymatic activity relative to control wells: 3.78 and 1.49
HDAC6; log[inhibitor(M)] -5
  residual enzymatic activity relative to control wells: 9.7 and 2.71
HDAC6; log[inhibitor(M)] -5.69897
  residual enzymatic activity relative to control wells: 22.49 and 13.07
HDAC6; log[inhibitor(M)] -6.39794
  residual enzymatic activity relative to control wells: 47.9 and 35.05
HDAC6; log[inhibitor(M)] -7.09691
  residual enzymatic activity relative to control wells: 78.65 and 63.46
HDAC6; log[inhibitor(M)] -7.79588
  residual enzymatic activity relative to control wells: 92.99 and 81.77
HDAC6; log[inhibitor(M)] -8.49485
  residual enzymatic activity relative to control wells: 99.83 and 89.79
HDAC6; log[inhibitor(M)] -9.19382
  residual enzymatic activity relative to control wells: 102.59 and 95.48
HDAC6; log[inhibitor(M)] -9.89279
  residual enzymatic activity relative to control wells: 101.36 and 96.27
HDAC6; log[inhibitor(M)] -10.585
  residual enzymatic activity relative to control wells: 101,22* and 96,07*
HDAC6; in solution
  Ki: 114 ± 2 nM
HDAC1 [2]
  Ki: 70 ± 1 nM
HDAC1 [2]; log[inhibitor(M)] -4.30103
  HDAC1 dose-response data (relative enzyme activity), Fig. 6 + S. Fig. 10: 2.2617 and 2.685
HDAC1 [2]; log[inhibitor(M)] -6.39794
  HDAC1 dose-response data (relative enzyme activity), Fig. 6 + S. Fig. 10: 54.2155 and 43.2283
HDAC1 [2]; log[inhibitor(M)] -7.09691
  HDAC1 dose-response data (relative enzyme activity), Fig. 6 + S. Fig. 10: 91.0731 and 84.0543
HDAC1 [2]; log[inhibitor(M)] -7.79588
  HDAC1 dose-response data (relative enzyme activity), Fig. 6 + S. Fig. 10: 111.87 and 112.408
HDAC1 [2]; log[inhibitor(M)] -8.49485
  HDAC1 dose-response data (relative enzyme activity), Fig. 6 + S. Fig. 10: 111.243 and 114.065
HDAC1 [2]; log[inhibitor(M)] -9.19382
  HDAC1 dose-response data (relative enzyme activity), Fig. 6 + S. Fig. 10: 105.717 and 111.571
HDAC1 [2]; log[inhibitor(M)] -9.89279
  HDAC1 dose-response data (relative enzyme activity), Fig. 6 + S. Fig. 10: 103.869 and 106.196
HDAC1 [2]; [5]
  HDAC1 dose-response data (relative enzyme activity), Fig. 6 + S. Fig. 10: 100,2561* and 100,875*
HDAC4; inhibitor 5 µM
  residual enzymatic activity relative to control wells: 108.47
HDAC4; inhibitor 5 µM, read-out: residual enzymatic activity relative to control wells
  remaining activity at 5 µM: 98.7%
HDAC4; inhibitor 50 µM
  residual enzymatic activity relative to control wells: 74.7
HDAC4; inhibitor 50 µM, read-out: residual enzymatic activity relative to control wells
  remaining activity at 50 µM: 89.4%
HDAC2; log[inhibitor(M)] -5
  HDAC2 dose-response data (relative enzyme activity), Fig. 6 + S. Fig. 10: 7.156 and 8.696
HDAC2; log[inhibitor(M)] -5.69897
  HDAC2 dose-response data (relative enzyme activity), Fig. 6 + S. Fig. 10: 27.5449 and 22.7201
HDAC2; log[inhibitor(M)] -7.79588
  HDAC2 dose-response data (relative enzyme activity), Fig. 6 + S. Fig. 10: 107.892 and 100.231
HDAC2; [5]
  HDAC2 dose-response data (relative enzyme activity), Fig. 6 + S. Fig. 10: 104,1863* and 103,2461*
HDAC2; resynthesized peptide in solution, Cheng-Prusoff, n = 2
  Ki: 70.2 ± 0.5 nM
HDAC1 [3]
  EC50: 5.01 nM
HDAC3/NCoR2 [4]
  EC50: 2.4 nM
HDAC8
  Ki: 1680 ± 13 nM
HDAC8; Inhibitor conc [M] -8.49485 (log)
  HDAC8 dose-response data (relative enzyme activity, replicate values), Fig. 6 + S. Fig. 10: 104.092 and 106.342
HDAC8; Inhibitor conc [M] -9.19382 (log)
  HDAC8 dose-response data (relative enzyme activity, replicate values), Fig. 6 + S. Fig. 10: 107.088 and 104.012
HDAC8; Inhibitor conc [M] given as -7.09691 (log)
  HDAC8 dose-response data (relative enzyme activity, replicate values), Fig. 6 + S. Fig. 10: 97.5487 and 105.051
HDAC8; Inhibitor conc [M] given as -7.79588 (log)
  HDAC8 dose-response data (relative enzyme activity, replicate values), Fig. 6 + S. Fig. 10: 103.383 and 113.008
HDAC8; Inhibitor conc [M] given as -9.89279 (log)
  HDAC8 dose-response data (relative enzyme activity, replicate values), Fig. 6 + S. Fig. 10: 103.125 and 102.688
HDAC8; Inhibitor conc [M] -4.30103
  HDAC8 dose-response data (relative enzyme activity), Fig. 6 + S. Fig. 10: 7.884 and 8.121
HDAC8; Inhibitor conc [M] -5
  HDAC8 dose-response data (relative enzyme activity), Fig. 6 + S. Fig. 10: 24.6267 and 25.2578
HDAC8; Inhibitor conc [M] -5.69897
  HDAC8 dose-response data (relative enzyme activity), Fig. 6 + S. Fig. 10: 57.0341 and 59.1741
HDAC8; Inhibitor conc [M] -6.39794
  HDAC8 dose-response data (relative enzyme activity), Fig. 6 + S. Fig. 10: 87.2467 and 93.8953
